In US20250295757A1 (priority 2022, published 2025):

Tested on: SARS-CoV-2 (WT and OTS virus) in VeroET cells
Type: cell-based

Structure (SMILES) | number of infectious virus particles in a TCID50 virus assay
O=c1[nH]cc(F)c(=O)[nH]1 [5-Fluorouracil] | reduces
CC(C)C(=O)OC[C@H]1O[C@@H](n2ccc(NO)nc2=O)[C@H](O)[C@@H]1O [Malnupiravir] | reduces
